Test results taken from patent US20090175905A1, “TRANSFECTION REAGENT AND METHOD FOR ENHANCING TRANSFECTION EFFICIENCY” (National Taiwan University of Science and Technology, priority 2008, published 2009).

Assays:
[1] = tested on: Chinese hamster ovary (CHO) cells; assay: In vitro transfection of CHO cells with different lipid-based vectors plus disaccharides, GFP-positive percentage; format: cell-based; conditions: 120 mM disaccharide; DOTAP, DOTAP/Chol, DOTAP/DOPE, DC-Chol/DOPE or LPD vector
Excerpt: FIGS. 3A and 3B present the effects of disaccharides on the transgene expression of cultured Chinese hamster ovary (CHO) cells subjected to an in vitro transfection of DNA with a transfection reagent containing different lipid-based vectors plus different disaccharides. The x-axis in FIGS. 3A and 3B represents the lipid composition, and the y-axis represents the GFP-positive percentage of the transfected CHO cells, which is used as an indicator for transfection efficiency. In the experiments shown in FIGS. 3A and 3B, DOTAP, DOTAP/Chol, DOTAP/DOPE, DC-Chol/DOPE or LPD applied as a vector is incorporated into a pEGFP-C1 plasmid-containing transfection reagent. Thereafter, 120 mM of various disaccharides is incorporated into the transfection reagent, and in vitro cell transfection is performed followed by detecting the cell percentage of GFP expression.

[2] = tested on: Chinese hamster ovary (CHO) cells; assay: In vitro transfection of CHO cells with pEGFP-C1 plasmid and DOTAP liposomes plus disaccharides, GFP by flow cytometer; format: cell-based; conditions: DOTAP liposomes; for effect on transfection efficiency: appropriate amount of disaccharide
Excerpt: FIG. 2 present the effects of disaccharides on the transgene expression of cultured Chinese hamster ovary (CHO) cells subjected to an in vitro transfection of DNA with a transfection reagent containing DOTAP and various disaccharides. The x-axis in FIG. 2 refers to the disaccharide concentration in the transfection reagent, and the y-axis in FIG. 2 represents the GFP (green fluorescent protein)-positive percentage of the transfected CHO cells measured by a flow cytometer. The GFP-positive percentage of the CHO cells is used as an indicator of transfection efficiency. In the experiments shown in FIG. 2, various concentrations of cellobiose, lactose, sucrose, trehalose and maltose are respectively incorporated into a transfection reagent containing pEGFP-C1 plasmid and DOTAP liposomes, and in vitro transfections are performed with the transfection reagents containing different disaccharides. The GFP-positive percentage of CHO cells is then detected for each transfection reagent sample. […] In other words, the incorporation of a disaccharide into the transfection reagent affects the transfection efficiency. Moreover, the changes in transfection efficiency are related to the type and the concentration of the disaccharide in the transfection reagent. […] More particularly, the transfection efficiency increases from 28% to more than 40% at 180 mM of lactose, sucrose or trehalose in a transfection reagent. The transfection efficiency is doubled when 120 mM of cellobiose is incorporated into a transfection reagent.

lung tissues = assay: In vivo transfection by tail vein injection of gWiz-luciferase plasmid with lipid-based vectors plus disaccharides, luciferase activity in lung; parameters: species or system mouse
Experimental: FIG. 4A presents the effects of disaccharides on the transgene expression after intravenous injection of DOTAP-based vectors with various disaccharides by way of mouse tail vein. Various concentrations of […] and […] are respectively incorporated into the transfection reagent containing the gWiz-luciferase plasmid and DOTAP liposomes. The transfection reagent is administered via intravenous injection through the tail vein of a 4-6 weeks old ICR (CD-1) […]. The […] is sacrificed 24 hour after the intravenous injection, and the activity of luciferase in the lung tissues of the […] is observed. The x-axis in FIG. 4A represents the disaccharide concentration in the tranfection reagent, and the y-axis in FIG. 4 represents the luminescent intensity, measured by a luminometer and expressed as relative light unit (RLU) per mg of lung tissue protein. The luminescent intensity is used as an indicator of transfection efficiency. […] Accordingly, cellobiose and trehalose can improve the efficiency of cell transfection in vivo, and the transfection efficiency increases as the concentration of the disaccharide increases. FIG. 4B presents the effects of disaccharides on the transgene expression after intravenous injection of different lipid-based vectors with various disaccharides by way of mouse tail vein. DOTAP, DOTAP/chol and LPD are respectively added as a vector into the tranfection reagent containing gWiz-luciferase plasmid. A concentration of 330 mM cellobiose or trehalsoe is incorporated into the transfection reagent. The transfection reagent is then intravenously injected into the animal for cell transfection. The x-axis in FIG. 4B represents the type of the lipid-based vector, and the y-axis in FIG. 4B represents the luminescent intensity, measured by a luminometer and expressed as relative light unit (RLU) per mg of lung tissue protein.

mouse muscles = assay: In vivo transfection of muscles by direct intramuscular injection of naked plasmid plus disaccharides, luciferase luminescence; conditions: naked plasmid, 10 mM disaccharide
Experimental: The following experiments are conducted using naked nucleic acid delivery system for directly transfecting plasmid DNA into the cells of animals, and additional viral or non-viral vector is precluded. The transfection reagent is incorporated with various concentrations of disaccharides as an enhancer, and the effects of disaccharides in the naked nucleic acid delivery system on the cell transfection are observed.
FIG. 9 presents the effects of various disaccharides on the transgene expression of mouse muscles after direct intramuscular injection of naked plasmid. The transfection procedures in these experiments are identical to those described previously in experiment 3. The major differences between the two experiments are the vector applied and the method of transfection as well as the administration route into the body of the […]. The x-axis in FIG. 9 represents the types of disaccharides, and the y-axis represents the luminescent intensity, measured by a luminometer and expressed as relative light unit (RLU) per mg of muscular tissue protein, wherein the luminescent intensity is used as an indicator to evaluate the transfection efficiency.
FIG. 10 presents the effects of trehalose concentrations on the transgene expression of mouse muscles after direct intramuscular injection of naked plasmid. The x-axis in FIG. 10 represents the concentrations of trehalose in the transfection reagent, and the y-axis represents the luminescent intensity, measured by a luminometer and expressed as relative light unit (RLU) per mg of muscular tissue protein. The luminescent intensity is used as an indicator to evaluate transfection efficiency.
[…] presents the effects of gene dosage on the transgene expression of mouse muscles in the presence of trehalose after direct intramuscular injection of naked plasmid. The x-axis in FIG. 11 represents the amount of DNA plasmid, and the y-axis represents the luminescent intensity, measured by a luminometer and expressed as relative light unit (RLU) per mg of muscular tissue protein, wherein the luminescent intensity is used as an indicator to evaluate the transfection efficiency.
FIG. 12 presents the effects of the trehalose on the durations of transgene expression of mouse muscles after direct intramuscular injection of naked plasmid. The x-axis in FIG. 12 represents the days after the intramuscular injection, and the y-axis represents the luminescent intensity, measured by a luminometer and expressed as relative light unit (RLU) per mg of muscular tissue protein, wherein the luminescent intensity is used as an indicator to evaluate the transfection efficiency of gWiz-luciferase plasmid. […] In other words, trehalose might extend the durations of nucleic acid remaining inside the cells, and therefore prolonged the durations of transgene expression.

[3] = DOTAP liposomes, i.v. tail vein, 24 hour, 330 mM disaccharide

SMILES	effect on transfection efficiency (GFP-positive percentage) [1]	change of transfection efficiency ([2]; 120 mM cellobiose)	effect on transfection efficiency [2]	effect on transfection efficiency (luminescent intensity, lung) (lung tissues; 330 mM disaccharide, DOTAP, DOTAP/Chol or LPD vector, i.v.)	luminescent intensity in the lung tissue (RLU per mg of lung tissue protein) (lung tissues; DOTAP liposomes, i.v. tail vein, 24 hour, 180 mM disaccharide)	increase of luciferase expression of lung (lung tissues; [3])	luminescent intensity in the lung tissue (RLU per mg of lung tissue protein) (lung tissues; [3])	cellular viability analyzed by the MTT assay (CHO cells)	luminescent intensity (RLU per mg of muscular tissue protein) versus control group without disaccharides (mouse muscles)
O=C[C@H](O)[C@@H](O)[C@H](O[C@@H]1O[C@H](CO)[C@@H](O)[C@H](O)[C@H]1O)[C@H](O)CO [cellobiose]	significantly enhances the transfection efficiency	doubled	increases significantly	significant increase in transfection efficiency	increase the luminescent intensity significantly	more than 10 fold	increases noticeably	improve the cellular viabilities	–
OC[C@H]1O[C@@H](O[C@H]2[C@H](O)[C@@H](O)C(O)O[C@@H]2CO)[C@H](O)[C@@H](O)[C@H]1O (some centres unmarked) [lactose]	significantly enhances the transfection efficiency	–	increases significantly	–	–	–	–	improve the cellular viabilities	higher luminescent intensity
OC[C@H]1O[C@H](O[C@H]2[C@H](O)[C@@H](O)[C@H](O)O[C@@H]2CO)[C@H](O)[C@@H](O)[C@@H]1O [maltose]	–	–	increases significantly	–	–	–	–	improve the cellular viabilities	–
OC[C@H]1O[C@@](CO)(O[C@H]2O[C@H](CO)[C@@H](O)[C@H](O)[C@H]2O)[C@@H](O)[C@@H]1O [sucrose]	significantly enhances the transfection efficiency	–	increases significantly	–	–	–	–	improve the cellular viabilities	–
